We go through 24 compounds from patent US20120252721A1 (priority 2011, published 2012).

Each structure is given as a SMILES string. Some results are limits rather than exact numbers.

What all share (assay type): cell-based
Data set [1] concerns HCV Con1 subgenomic replicon (GS4.1 cells). In words: HCV replicon assay (NS5A ELISA, 72 hrs). As to conditions: Hepatitis C virus. The method, then:
Huh-7 cells containing HCV Con1 subgenomic replicon (GS4.1 cells) were grown in Dulbecco's Modified Eagle Medium (DMEM) supplemented with 10% fetal bovine serum (FBS), 2 mM L-glutamine, 110 mg/L sodium pyruvate, 1× non-essential amino acids, 100 U/mL penicillin-streptomycin, and 0.5 mg/mL G418 (Invitrogen). For dose-response testing, the cells were seeded in 96-well plates at 7.5×10^3 cells/well in a volume of 50 μL, and incubated at 37° C./5% CO2. Three hours after plating, 50 μL often 2-fold serial dilutions of compounds (highest concentration, 75 μM) were added, and cell cultures were incubated at 37° C./5% CO2 in the presence of 0.5% DMSO. Alternatively, compounds were tested at a single concentration of 15 μM. In all cases, Huh-7 cells lacking the HCV replicon served as negative control. The cells were incubated in the presence of compounds for 72 hrs after which they were monitored for expression of the NS5A protein by enzyme-linked immunosorbent assay (ELISA). For this, the plates were then fixed for 1 min with acetone/methanol (1:1, v/v), washed twice with phosphate-buffered saline (PBS), 0.1% Tween 20, blocked for 1 hr at room temperature with TNE buffer containing 10% FBS and then incubated for 2 hr at 37° C. with the anti-NS5A mouse monoclonal antibody A-236 (ViroGen) diluted in the same buffer. After washing three times with PBS, 0.1% Tween 20, the cells were incubated 1 hr at 37° C. with anti-mouse immunoglobulin G-peroxidase conjugate in TNE, 10% FBS. After washing as described above, the reaction was developed with O-phenylenediamine (Zymed). The reaction was stopped after 30 min with 2 NH2SO4, and absorbance was read at 492 nm using Sunrise Tecan spectrophotometer. EC50 values were determined from the % inhibition versus concentration data using a sigmoidal non-linear regression analysis based on four parameters with Tecan Magellan software.
A general note: In antiviral work, replicon cells carry a viral genome segment that copies itself.

A further data set is described as follows: in vitro. Conditions: human; GS4.1 cells, cellular viability. On the procedure: For cytotoxicity evaluation, GS4.1 cells were treated with compounds as described above and cellular viability was monitored using the Cell Titer 96 AQeous One Solution Cell Proliferation Assay (Promega). CC50 values were determined from the % cytotoxicity versus concentration data with Tecan Magellan software as described above.

For data set [2], the system named is HCV genotype 1b Con1 strain subgenomic luciferase replicon (Zluc). The experiment in a line: Luciferase replicon assay, genotype 1b. As to conditions: Hepatitis C virus. On the procedure:
(§1) The HCV luciferase replicon assay measures the ability of a test compound to inhibit HCV replication in cell culture after 3 days of treatment in a human hepatoma cell line (Huh-7) bearing an HCV replicon containing a luciferase-neomycin phosphotransferase fusion gene. The inhibition of HCV replication was measured by quantification of luciferase protein expression. Briefly, Huh-7 cells containing either the HCV genotype 1a H77 strain or genotype 1b Con1 strain subgenomic luciferase replicon (H1a-luc or Zluc, respectively) were grown in DMEM containing glucose, L-glutamine and sodium pyruvate, 10% fetal bovine serum (FBS), 100 IU/mL penicillin, 100 μg/mL streptomycin, 2 mM GlutaMAX, non-essential amino acids and 0.25 (H1a-luc) or 0.5 (Zluc) mg/mL G418. GlutaMAX was obtained from Invitrogen, Corp.; all other media reagents were obtained from Mediatech, Inc. For dose-response testing, the cells were seeded in 96-well plates at 1×10^4 (H1a-luc) or 7.5×10^3 (Zluc) cells/well in a volume of 50 μL, and incubated at 37° C./5% CO2. Three hours after plating, 50 μL of ten 5-fold serial dilutions of compound were added, and cell cultures were incubated at 37° C./5% CO2 for 72 hours. In all cases, Huh-7 cells lacking the HCV replicon served as negative control. To assess luciferase expression, the media/compound was removed from the plates and ONE-glo Luciferase assay reagent (Promega) was added to each well. The assay plates were shaken for 3 minutes at room temperature and luciferase activity for each well was measured with a 1 sec read time on the Victor^3V multilabel counter using a 700 nm cut-off filter (Perkin Elmer). EC50 values were calculated from dose response curves from the resulting best-fit equations determined by Microsoft Excel and XLfit 4.1 software.

The test system of data set [3] is HCV genotype 1a H77 strain subgenomic luciferase replicon (H1a-luc). In words: Luciferase replicon assay, genotype 1a. As to conditions: Hepatitis C virus, read-out: EC50 1a. The method, then:
Drug titration analysis was performed using the luciferase replicon assay described herein.
as §1

As usually defined, the EC50 is the concentration needed to bring the measured effect to its halfway point. Usually CC50 stands for the concentration at which the toxic effect on the cells reaches its halfway point. Compound `COC(=O)N[C@H](C(=O)N1CCCC1c1nc(-c2ccc(-c3cn4cc(-c5ccc(-c6cnc([C@@H]7CCCN7C(=O)[C@@H](NC(=O)OC)C(C)C)[nH]6)cc5)sc4n3)cc2)c[nH]1)C(C)C` (stereo partly drawn) [Compound A93] returned an EC50 in data set [1] below 0.001 µM. Besides, the CC50 in “in vitro” was above 75 µM.

On to `COC(=O)N[C@H](C(=O)N1CCCC1c1ncc(-c2ccc(-c3csc4c(-c5ccccc5)csc34)cc2)[nH]1)C(C)C` (stereo partly drawn) [Compound A103], for which the EC50 in data set [1] lay in the range of 0.001 to 0.01 µM. This compound also returned a CC50 in the data set “in vitro” of 10 to 75 µM.

In the case of `COC(=O)N[C@H](C(=O)N1CCCC1c1nc(-c2ccc(-c3sc4cc(-c5ccc(-c6cnc([C@@H]7CCCN7C(=O)[C@@H](NC(=O)OC)C(C)C)[nH]6)cc5)sc4c3-c3ccc(-c4cnc(C5CCCN5C(=O)[C@@H](NC(=O)OC)C(C)C)[nH]4)cc3)cc2)c[nH]1)C(C)C` (stereo partly drawn) [Compound A105], the 50% effective concentration (EC50) in data set [1] lay within 0.01 to 0.1 µM. This compound also gave a half-maximal cytotoxic concentration (CC50) in the data set “in vitro” of 10 to 75 µM.

In data set [1], `COC(=O)N[C@H](C(=O)N1CCCC1c1ncc(-c2cc3sc(-c4ncc(-c5c[nH]c([C@@H]6CCCN6C(=O)[C@@H](NC(=O)OC)C(C)C)n5)s4)cc3s2)[nH]1)C(C)C` (stereo partly drawn) [Compound A130] came in with a concentration giving a half-maximal response (EC50) below 0.001 µM. This compound also displayed a 50% cytotoxic concentration (CC50) in the data set “in vitro” above 75 µM.

The compound `COC(=O)N[C@H](C(=O)N1CCC[C@H]1C(=O)Nc1cn2cc(-c3ccc(NC(=O)CNC(=O)[C@H](NC(=O)OC(C)(C)C)c4ccccc4)cc3)sc2n1)C(C)C` [Compound A147] displayed a half-maximal effective concentration (EC50) in data set [1] of 0.01 to 0.1 µM. Besides, the CC50 in “in vitro” was above 75 µM.

With `COC(=O)N[C@H](C(=O)N1CCC[C@H]1c1ncc(-c2ccc(-c3cn4cc(NC(=O)CNC(=O)[C@H](NC(=O)OC(C)(C)C)c5ccccc5)nc4s3)cc2)[nH]1)C(C)C` [Compound A148], the EC50 in data set [1] was 0.001 to 0.01 µM. Moreover, in “in vitro”, the cytotoxic concentration (CC50) was above 75 µM.

In data set [1], `COC(=O)N[C@H](C(=O)N1CCC[C@H]1C(=O)Nc1cn2cc(-c3cccc(NC(=O)[C@@H]4CCCN4C(=O)[C@H](NC(=O)OC)c4ccccc4)c3)sc2n1)C(C)C` [Compound A149] displayed a concentration for a half-maximal effect (EC50) of 0.01 to 0.1 µM. The same compound registered a cytotoxic concentration (CC50) in the data set “in vitro” of 10 to 75 µM.

Regarding `COC(=O)N[C@H](C(=O)N1CCC[C@H]1c1ncc(-c2ccc(-c3cn4cc(NC(=O)[C@@H]5CCCN5)nc4s3)cc2)[nH]1)C(C)C` [Compound A150], in data set [1], the EC50 fell in the range of 0.01 to 0.1 µM. This compound also yielded a CC50 in “in vitro” of 10 to 75 µM.

As for `COC(=O)N[C@H](C(=O)N1CCCC1c1ncc(-c2ccc(-c3csc4c(-c5cnc(C6CCCN6C(=O)OC(C)(C)C)[nH]5)csc34)cc2)[nH]1)C(C)C` (stereo partly drawn) [Compound A151], the concentration for a half-maximal effect (EC50) in data set [1] was below 0.001 µM. This compound also yielded a CC50 in the data set “in vitro” of 10 to 75 µM.

In data set [1], `CC(C)(C)OC(=O)N1CCCC1c1ncc(-c2cn3cc(-c4ccc(Cl)cc4)sc3n2)[nH]1` (stereo not drawn) [Compound A152] returned an EC50 above 0.1 µM. The compound also showed a CC50 in “in vitro” of 10 to 75 µM.

On to `COC(=O)N[C@H](C(=O)N1CCCC1c1ncc(-c2cn3cc(-c4ccc(Cl)cc4)sc3n2)[nH]1)C(C)C` (stereo partly drawn) [Compound A153], for which the EC50 in data set [1] lay within 0.01 to 0.1 µM. This compound also yielded a CC50 in “in vitro” of 10 to 75 µM.

As for `COC(=O)N[C@H](C(=O)N1CCCC1c1ncc(-c2ccc(-c3ccc(-c4nc5sccn5c4Cl)cc3)cc2)[nH]1)C(C)C` (stereo partly drawn) [Compound A154], the 50% effective concentration (EC50) in data set [1] is 0.01 to 0.1 µM. In the data set “in vitro”, this compound returned a CC50 of 10 to 75 µM.

`COC(=O)N[C@H](C(=O)N1CCC[C@H]1c1ncc(-c2ccc(-c3csc4c(Br)csc34)cc2)[nH]1)C(C)C` [Compound A155, [(S)-1-((S)-2-{4-[4-(6-bromo-thieno[3,2-b]thiophen-3-yl)-phenyl]-1H-imidazol-2-yl}-pyrrolidine-1-carbonyl)-2-methyl-propyl]-carbamic acid methyl ester] displayed an EC50 in data set [1] of 0.01 to 0.1 µM. For the same compound, the cytotoxic concentration (CC50) in “in vitro” lay within 10 to 75 µM.

For the compound `COC(=O)N[C@H](C(=O)N1CCC[C@H]1c1cc(-c2ccc(-c3cn4cc(NC(=O)[C@@H]5CCCN5C(=O)[C@H](NC(=O)OC(C)C)c5ccccc5)nc4s3)cc2)[nH]n1)C(C)C` [Compound A156], the half-maximal effective concentration (EC50) in data set [1] is below 0.001 µM. In “in vitro”, this compound returned a 50% cytotoxic concentration (CC50) above 75 µM.

`CC(C)(C)OC(=O)N1CCCC1c1nc(-c2ccc(-c3cn4cc(-c5ccc(-c6cnc([C@@H]7CCCN7C(=O)OC(C)(C)C)[nH]6)cc5)sc4n3)cc2)c[nH]1` (stereo partly drawn) [Compound A157]: in data set [1], the EC50 fell in the range of 0.01 to 0.1 µM. Further, the CC50 in “in vitro” is above 75 µM.

The compound `CC(C)(C)OC(=O)N1CCC[C@H]1c1ncc(-c2ccc(-c3cn4c(-c5ccccc5)csc4n3)cc2)[nH]1` [Compound A158] registered an EC50 in data set [1] above 0.1 µM. Further, in the data set “in vitro”, the cytotoxic concentration (CC50) was in the range of 10 to 75 µM.

The compound `COC(=O)N[C@H](C(=O)N1CCCC1c1nc(-c2ccc(-c3cc4sc(-c5ccc(-c6cnc([C@@H]7CCCN7C(=O)[C@@H](NC(=O)OC)C(C)C)[nH]6)cc5)cc4s3)cc2)c[nH]1)C(C)C` (stereo partly drawn) [Compound A159] had an EC50 in data set [1] below 0.001 µM. For the same compound, the CC50 in the data set “in vitro” is above 75 µM.

`COC(=O)N[C@H](C(=O)N1CCCC1c1ncc(-c2ccc(-c3cn4ccsc4n3)cc2)[nH]1)C(C)C` (stereo partly drawn) [Compound A160] yielded an EC50 in data set [1] of 0.01 to 0.1 µM. The CC50 in “in vitro” was above 75 µM.

`CC(C)(C)OC(=O)N1CCCC1c1ncc(-c2ccc(-c3nc4sccn4c3Cl)cc2)[nH]1` (stereo not drawn) [Compound A161] yielded a concentration giving a half-maximal response (EC50) in data set [1] above 0.1 µM. In addition, the CC50 in “in vitro” was above 75 µM.

In turn, `COC(=O)N[C@H](C(=O)N1CCCC1c1ncc(-c2ccc(-c3cn4c(-c5ccccc5)csc4n3)cc2)[nH]1)C(C)C` (stereo partly drawn) [Compound A162] came in with a 50% effective concentration (EC50) in data set [1] of 0.001 to 0.01 µM. Besides, the CC50 in “in vitro” lay within 10 to 75 µM.

The compound `COC(=O)N[C@H](C(=O)N1CCCC1c1nc(-c2ccc(-c3c(C(=O)OC)[nH]c4c(-c5ccc(-c6cnc(C7CCCN7C(=O)[C@@H](NC(=O)OC)C(C)C)[nH]6)cc5)csc34)cc2)c[nH]1)C(C)C` (stereo partly drawn) [Compound A163] showed an EC50 in data set [1] below 0.001 µM. The cytotoxic concentration (CC50) in the data set “in vitro” is above 75 µM.

In data set [1], `COC(=O)N[C@H](C(=O)N1CCCC1c1ncc(-c2ccc(-c3csc4cc(C(=O)OC)[nH]c34)cc2)[nH]1)C(C)C` (stereo partly drawn) [Compound A164] gave a 50% effective concentration (EC50) of 0.01 to 0.1 µM. The CC50 in “in vitro” fell in the range of 10 to 75 µM.

With `COC(=O)N[C@H](C(=O)N1CCCC1c1ncc(-c2ccc(-c3cc4sc(Br)cc4s3)cc2)[nH]1)C(C)C` (stereo partly drawn) [Compound A168], the EC50 in data set [1] lay within 0.01 to 0.1 µM. The compound further displayed a 50% cytotoxic concentration (CC50) in “in vitro” of 10 to 75 µM.

In the case of `COC(=O)N[C@H](C(=O)N1CCCC1c1ncc(-c2ccc(-n3ccc4c(-c5cnc(C6CCCN6C(=O)[C@@H](NC(=O)OC)C(C)C)[nH]5)csc43)c(Cl)c2)[nH]1)C(C)C` (stereo partly drawn) [Compound A213], the EC50 in data set [2] was below 0.0001 µM; in data set [3], 0.0001 to 0.001 µM.
